Experimental data from patent publication US20250075248A1, “SYSTEMS, METHODS, AND DEVICES FOR ANTIMICROBIAL SUSCEPTIBILITY TESTING” (Deepull Diagnostics S.L., priority 2022, published 2025).
Values after ≈ are worked out from the molar mass of the structure shown.

Key:
Assay type in all cases: cell-based
[1] = system: Escherichia coli resistant (ATCC700891); assay: Broth microdilution method MIC; conditions: E. coli ATCC700891, read-out: MIC according to broth microdilution method
[2] = system: Escherichia coli susceptible (ATCC25922); assay: Broth microdilution method MIC; conditions: E. coli ATCC25922, read-out: MIC according to broth microdilution method
[3] = system: Escherichia coli resistant (ATCC700891); assay: Fast (1 hour) high dose detection of resistant bacteria by fluorescence microscopy
Method: (§1) To rapidly detect high resistant bacteria to a particular antimicrobial agent, bacteria were grown during a short period of time (1 hour) in the presence of high dose of that antimicrobial agent. Two strains of Escherichia coli, one susceptible (ATCC25922) and the other resistant (ATCC700891) to ampicillin were grown until an exponential phase in culture media. Bacteria cultures were diluted in culture media (Mueller Hinton cation adjusted broth) and were incubated at a final concentration of 2×10^4 CFU/mL during 1 hour at 37° C. in the presence of ampicillin at a final concentration of 128 mg/L, 64 mg/L, and 32 mg/L in a final volume of 10 μL. Three replicates were performed for each antibiotic concentration.
(§2) Samples were visualized at time 0 that represents bacteria before any incubation and after 1 hour incubation. 5 μL of each sample were transferred to a 384-well plate with flat polystyrene film bottom and incubated with fluorescence dyes (SYBR Green and Propidium Iodide) during 10 minutes at room temperature in the dark. The 384-well plate was centrifuged during 1 minute at 3000 g in a swinging-bucket movement and observed in an inverted fluorescence microscope. For each sample a composite image covering the bottom of each well was constructed. Images were analyzed with a custom software to count bacteria, detect filamentous bacteria, counts red bacteria, and record the brightness of bacteria. These images are illustrated in FIG. 26A.

[4] = system: Escherichia coli susceptible (ATCC25922); assay: as above
Method: as §1, §2

[5] = 128 mg/L, 64 mg/L and 32 mg/L, 1 hour at 37° C.

MIC [1]: ≥ 128 µg/mL
MIC [2]: 4 µg/mL (≈ 11.4 µM)
Structure (SMILES): CC1(C)S[C@@H]2[C@H](NC(=O)[C@H](N)c3ccccc3)C(=O)N2[C@H]1C(=O)O [ampicillin, Ampicillin]
bacterial growth after 1 hour incubation [3, 5]: showed growth
filamentous or red bacteria after 1 hour incubation ([3]; all three tested concentrations (128, 64, 32 mg/L)): without presence of filamentous bacteria or red bacteria
bacterial growth after 1 hour incubation [4, 5]: does not grow
red (Propidium Iodide, dead) bacteria after 1 hour incubation ([4]; at 128 mg/L): presence of red bacteria
bacterial morphology after 1 hour incubation ([4]; in the three concentrations tested (128, 64, 32 mg/L)): filamentous form
